Results published in ChEMBL document CHEMBL1201862, “PubChem BioAssay data set” (2004).
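Each compound was tested at five concentrations against cells in 96-well plates for 48 hours. At the GI50, growth is halved.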 Activity calls are given as the source filed them. Rule as the data show it: active = GI50 up to about 1.1 µM and inactive = higher.

Key:
Test in all cases: growth of human tumour cells (NCI), 48 h
MDA-N = system: MDA-N
MDA-MB-435 = system: MDA-MB-435
PC-3 = system: PC-3
UACC-257 = system: UACC-257
SK-MEL-28 = system: SK-MEL-28
TK-10 = system: TK-10
SF-295 = system: SF-295
CCRF-CEM = system: CCRF-CEM
T47D = system: T47D
NCI-H460 = system: NCI-H460
SF-268 = system: SF-268
IGROV-1 = system: IGROV-1
KM12 = system: KM12
BT-549 = system: BT-549
HOP-62 = system: HOP-62
COLO 205 = system: COLO 205
NCI-H23 = system: NCI-H23
SR = system: SR
HT-29 = system: HT-29
SNB-75 = system: SNB-75

## CC(OCc1ccccc1)C(NC(=O)C1CSSCC(NC(=O)C(Cc2ccccc2)NC(=O)OCc2ccccc2)C(=O)NC(Cc2ccccc2)C(=O)NC(Cc2cn(C=O)c3ccccc23)C(=O)NC(CCCCNC(=O)OCc2ccccc2)C(=O)NC(C(C)OCc2ccccc2)C(=O)N1)C(N)=O (stereo not given)
MDA-N
  GI50: 24.2 µM (inactive)
MDA-MB-435
  GI50: 37.9 µM (inactive)
PC-3
  GI50: 19.1 µM (inactive)
UACC-257
  GI50: 44 µM (inactive)
SK-MEL-28
  GI50: 27.9 µM (inactive)
TK-10
  GI50: 33.7 µM (inactive)
SF-295
  GI50: > 85.7 µM (inactive)
CCRF-CEM
  GI50: 36.6 µM (inactive)
T47D
  GI50: 13.3 µM (inactive)
NCI-H460
  GI50: 22.5 µM (inactive)
SF-268
  GI50: > 61.8 µM (inactive)
IGROV-1
  GI50: 22.6 µM (inactive)
KM12
  GI50: 3.91 µM (inactive)
BT-549
  GI50: 21.2 µM (inactive)
HOP-62
  GI50: 55.1 µM (inactive)
COLO 205
  GI50: 3.03 µM (inactive)
NCI-H23
  GI50: 33.4 µM (inactive)
SR
  GI50: 34 µM (inactive)
HT-29
  GI50: 6.04 µM (inactive)
SNB-75
  GI50: 22.1 µM (inactive)

## CC1CC(C#N)=C2NCCCCN2C1=O (stereo not given)
MDA-N
  GI50: > 100 µM (inactive)
MDA-MB-435
  GI50: > 100 µM (inactive)
PC-3
  GI50: > 100 µM (inactive)
UACC-257
  GI50: > 100 µM (inactive)
SK-MEL-28
  GI50: > 100 µM (inactive)
TK-10
  GI50: > 100 µM (inactive)
SF-295
  GI50: > 100 µM (inactive)
CCRF-CEM
  GI50: > 100 µM (inactive)
T47D
  GI50: > 100 µM (inactive)
NCI-H460
  GI50: > 100 µM (inactive)
SF-268
  GI50: > 100 µM (inactive)
IGROV-1
  GI50: > 100 µM (inactive)
KM12
  GI50: > 100 µM (inactive)
BT-549
  GI50: > 100 µM (inactive)
HOP-62
  GI50: > 100 µM (inactive)
COLO 205
  GI50: > 100 µM (inactive)
NCI-H23
  GI50: > 100 µM (inactive)
SR
  GI50: > 100 µM (inactive)
HT-29
  GI50: > 100 µM (inactive)
SNB-75
  GI50: > 100 µM (inactive)

## COC(=O)C1=C(C)NC(C)=C(C(=O)OC)C1c1ccc(NO)cc1
MDA-N
  GI50: 12.2 µM (inactive)
MDA-MB-435
  GI50: 14.1 µM (inactive)
PC-3
  GI50: 13.4 µM (inactive)
UACC-257
  GI50: 11 µM (inactive)
SK-MEL-28
  GI50: 17.5 µM (inactive)
TK-10
  GI50: 16.5 µM (inactive)
SF-295
  GI50: 17 µM (inactive)
CCRF-CEM
  GI50: 0.897 µM (active)
T47D
  GI50: 7.23 µM (inactive)
NCI-H460
  GI50: 14.9 µM (inactive)
SF-268
  GI50: 19 µM (inactive)
IGROV-1
  GI50: 16.3 µM (inactive)
KM12
  GI50: 17.1 µM (inactive)
BT-549
  GI50: 13.2 µM (inactive)
HOP-62
  GI50: 14.6 µM (inactive)
COLO 205
  GI50: 12.5 µM (inactive)
NCI-H23
  GI50: 21.3 µM (inactive)
SR
  GI50: 2.47 µM (inactive)
HT-29
  GI50: 7.01 µM (inactive)
SNB-75
  GI50: 13.2 µM (inactive)

## Cn1c2ccccc2n2c(N=O)c(-c3ccccc3)nc12
MDA-N
  GI50: 55.1 µM (inactive)
MDA-MB-435
  GI50: 38.8 µM (inactive)
PC-3
  GI50: 96.6 µM (inactive)
UACC-257
  GI50: 34.3 µM (inactive)
SK-MEL-28
  GI50: > 100 µM (inactive)
TK-10
  GI50: 51.8 µM (inactive)
SF-295
  GI50: 31.1 µM (inactive)
CCRF-CEM
  GI50: 30.5 µM (inactive)
T47D
  GI50: 95.9 µM (inactive)
NCI-H460
  GI50: 16.4 µM (inactive)
SF-268
  GI50: > 100 µM (inactive)
IGROV-1
  GI50: 25.5 µM (inactive)
KM12
  GI50: 15.2 µM (inactive)
BT-549
  GI50: 27.6 µM (inactive)
HOP-62
  GI50: 5.52 µM (inactive)
COLO 205
  GI50: 10.2 µM (inactive)
NCI-H23
  GI50: 18.3 µM (inactive)
SR
  GI50: 55.1 µM (inactive)
HT-29
  GI50: 27.7 µM (inactive)
SNB-75
  GI50: 5.08 µM (inactive)
